B1: 55F3 antibody (antibody, V domains shown)
VH: DVQLQESGPGLVKPSQSLSLTCTATGYSIASDYAWNWIRQFPGNKLEWMGYINYSGSTGYNPSLKSRISITRDTSKNQFFLQLNSVTTEDTATYYCARFEAGYWGQGTTLTVSS
VL: DIKMTQSPSSMSASLGERVTITCKASQDINRYLSWFQQKPGKSPKTLIYRANRLVDGVPSRFSGSGSGQDYSLTISSLEYGDMGIYYCLQYNEFPLTFGAGTKLELKR
notes: also called 55F3E5; 55F3E5 (55F3) monoclonal antibody

Assays:
[1] = system: IL-2ss-TCTP tumors; assay: Proliferation assay of subcutaneously transplanted IL-2ss-TCTP SL4 tumor in C57BL/6 mice; format: in vivo, mouse; conditions: 50 mg/kg orally, FIG. 11(i)
Protocol: In FIG. 11(a), PECs (2×10^5 cells) or SL4 cells (1×10^5 cells) were stimulated with recombinant TCTP for 2 hours. Thereafter, Cxcl1 mRNA was quantified by qRT-PCR (n=3). In FIG. 11(b), the Cxcl1 mRNA of TCTP WO SL4 cells and TCTP KO SL4 cells was quantified by RT-qPCR. n=3. In FIG. 11(c), SL4 cells (2×10^5 cells) were subcutaneously transplanted into C57BL/6 mice (n=3). On Day 21 after the transplantation, single cell suspensions were prepared from tumors. Thereafter, various immune cells (PMN-MDSCs, M-MDSCs, TAMS, DCs, T cells, B cells, and NK cells) were separated, and the Cxcl2 mRNA of individual cells was then quantified by qRT-PCR. In FIG. 11(d), PECs (2×10^5 cells) were stimulated with recombinant IL-la for 2 hours. Thereafter, Cxcl1 mRNA was quantified by qRT-PCR (n=3). […] HEK293T cells transiently expressing TLR2-YFP and Flag-TCTP were subjected to immunoprecipitation with an anti-GFP antibody, and thereafter, were analyzed with an anti-Flag antibody (upper view), and TLR2 and TCTP in the whole cell lysate were detected (lower view). […] The tumor volume was measured over time. In FIG. 11(i), IL-2ss-TCTP SL4 cells (2×10^5 cells) were subcutaneously transplanted into C57BL/6 mice, and the tumor volume was then measured over time. […]

[2] = target: T1, mouse TCTP (mouse, UniProt P63028 1-172); assay: immunoblotting of whole cell lysates of TCTP WT and TCTP KO SL4 cells
T1 construct: also called TCTP in the whole cell lysate of TCTP WT SL4 cells; TCTP released from dead SL4 cells
T1 sequence (looked up): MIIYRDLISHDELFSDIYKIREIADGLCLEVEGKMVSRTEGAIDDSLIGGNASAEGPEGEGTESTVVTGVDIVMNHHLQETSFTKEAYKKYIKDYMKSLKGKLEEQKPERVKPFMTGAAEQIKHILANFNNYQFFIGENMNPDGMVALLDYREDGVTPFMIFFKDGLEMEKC

| Molecule | proliferation of IL-2ss-TCTP tumors [1] | binding result [2] |
| --- | --- | --- |
| COc1cccc(C=O)c1O [O -vanillin, O-vanillin] | suppressed |  |
| B1 |  | binds |

Source: US20230312744A1, “Modulatory Substance of Tumor Immune Microenvironment, and Preventive, Diagnostic and/or Therapeutic Utilization of the Same” (The University Of Tokyo, priority 2020, published 2023)
